Assay results from PubChem BioAssay (NCI).
Values joined by “and” are separate entries in the source; they are usually repeats but may differ in a detail not shown here. Identical values can stand only once.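 Interpolation was linear, between the two tested concentrations surrounding the appropriate level; five concentrations were tested over 48 hours in 96-well plates. Abbreviation: GI50, concentration required for 50% inhibition of growth. TGI is the concentration that stops growth completely.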

Columns and labels:
Test in all cases: growth of human tumour cells (NCI), 48 h
CAKI-1 renal = system: CAKI-1 renal
SF-539 CNS = system: SF-539 CNS
SF-268 CNS = system: SF-268 CNS
NCI-H226 lung = system: NCI-H226 lung
HL-60(TB) leukemia = system: HL-60(TB) leukemia
EKVX NSCLC = system: EKVX NSCLC
HOP-62 NSCLC = system: HOP-62 NSCLC
IGROV1 ovarian = system: IGROV1 ovarian
UACC-62 melanoma = system: UACC-62 melanoma
BT-549 breast = system: BT-549 breast

Row | SMILES | GI50 (CAKI-1 renal) [µM] | TGI (CAKI-1 renal) | GI50 (SF-539 CNS) [µM] | TGI (SF-539 CNS) | GI50 (SF-268 CNS) [µM] | TGI (SF-268 CNS) | GI50 (NCI-H226 lung) [µM] | TGI (NCI-H226 lung) | GI50 (HL-60(TB) leukemia) [µM] | TGI (HL-60(TB) leukemia) | GI50 (EKVX NSCLC) [µM] | TGI (EKVX NSCLC) | GI50 (HOP-62 NSCLC) [µM] | TGI (HOP-62 NSCLC) [µM] | GI50 (IGROV1 ovarian) [µM] | TGI (IGROV1 ovarian) | GI50 (UACC-62 melanoma) [µM] | TGI (UACC-62 melanoma) | GI50 (BT-549 breast) [µM] | TGI (BT-549 breast)
1 | O=C1/C=C/[C@@H](O)[C@@H]2C[C@@H](O)C[C@H]2/C=C/CCC[C@H](C(F)(F)F)O1 | 0.178 | 27.4 µM | 0.504 | > 100 µM | 0.403 | > 77.8 µM | 0.0687 | 0.68 µM | 0.243 | 0.605 µM | 1.33 | > 100 µM | 2.14 | > 100 | 0.561 | 4.16 µM | 0.223 | > 35.4 µM | 0.211 | 10.8 µM
2 | CCCCCCCCCCCCCC[C@@H](O)[C@H]1CC[C@H]([C@H]2CC[C@H]([C@H](O)CCCCCC[C@@H](O)CC3=C[C@H](C)OC3=O)O2)O1 | 1.75 | 5.01 µM and > 25 µM | 2.25 | 6.85 µM and > 25 µM | 1.69 | 5.04 µM and > 25 µM | 1.71 | 5.04 µM and > 25 µM | > 25 | 7.14 µM and > 25 µM | 1.68 | 9.27 µM and > 25 µM | 2.74 | > 25 | 2.61 | 8.75 µM and > 25 µM | > 25 | 4.5 µM and > 25 µM | 1.88 | 4.86 µM and > 25 µM
3 | O=c1[nH]cnc2c1nnn2CCCCCCCCCCCCn1nnc2c(=O)[nH]cnc21 | – | > 100 µM | – | 54.6 µM | – | 79.9 µM | – | 63.5 µM | – | > 100 µM | – | > 82.5 µM | – | 54 | – | > 77.8 µM | – | > 78 µM | – | > 100 µM
4 | O=S(=O)(c1cnccc1N1CCN(CCO)CC1)N1CCCC1 | – | > 100 µM | – | > 100 µM | – | > 100 µM | – | > 100 µM | – | > 100 µM | – | > 100 µM | – | > 100 | – | > 100 µM | – | > 100 µM | – | > 100 µM
5 | COC(=O)C=Cc1ccc2nncnc2c1 (mixture of isomers) | – | > 100 µM | – | > 100 µM | – | > 100 µM | – | > 100 µM | – | > 100 µM | – | > 100 µM | – | > 100 | – | > 100 µM | – | 32.2 µM | – | > 100 µM
6 | COc1ccc(N(C)c2nc(N)nc3sc4c(c23)CCCC4)cc1 | < 0.0137 | 15.4 µM | < 0.01 | – | < 0.0159 | 14.5 µM | 0.616 | 22.3 µM | < 0.01 | 0.0101 µM | < 0.01 | 18.7 µM | 0.275 | 18.8 | < 0.01 | 13 µM | < 0.01 | 15.8 µM | 0.0123 | 10.5 µM
7 | c1ccc2c3c([nH]c2c1)C(c1ccc(C2NCCc4c2[nH]c2ccccc42)cc1)NCC3 (stereo unspecified) | 1.66 | 4.03 µM | 1.62 | 3.04 µM | 1.12 | 2.57 µM | 1.96 | 4.23 µM | 1.13 | 2.81 µM | 1.42 | 3.39 µM | 1.31 | 2.8 | 1.34 | 2.83 µM | 0.749 | 2.13 µM | 11.1 | 24.4 µM
8 | CC(=O)[O][Hg][c]1c(C)c(C)cc(C)c1C | 2.03 | 5.4 µM | 1.51 | 3.11 µM | 0.825 | 2.25 µM | 2.05 | 3.87 µM | 0.704 | 2.61 µM | 1.25 | 3.11 µM | 2.02 | 4.05 | 0.703 | 2.37 µM | 1.69 | 4.59 µM | 1.86 | 3.79 µM
9 | CC1=C(Nc2ccc(N3CCN(C)CC3)cc2)C(=O)c2cncnc2C1=O | 3.27 | 14.2 µM | 13.5 | 26.9 µM | 16 | 50.4 µM | 15.2 | 35.7 µM | 2.5 | 6.11 µM | 5.63 | 19.1 µM | 19.2 | 60.4 | 2.24 | 5.17 µM | 2.38 | 5.64 µM | 17.1 | 32.5 µM
10 | COc1nnc2ccc(N3CCC(c4ccc(OCCN5CCN(C)C(=O)[C@H]5C)cc4)CC3)nn12 | 0.0237 | > 100 µM | 0.116 | > 100 µM | 1.69 | > 100 µM | 2.3 | > 67.7 µM | 0.0309 | > 100 µM | 0.239 | > 100 µM | 0.0875 | > 100 | 0.0876 | > 100 µM | < 0.0153 | > 56.9 µM | 1.87 | > 100 µM
11 | C=C1C(=O)OC2/C=C(/C)C(OC(C)=O)C/C=C(\C)C(OC(=O)C3(C)OC3C)C(O)C12 (stereo unspecified) | – | > 100 µM | – | > 100 µM | – | > 100 µM | – | > 100 µM | – | > 100 µM | – | > 100 µM | – | > 100 | – | > 100 µM | – | > 100 µM | – | > 100 µM
12 | N#CC1c2ccccc2C=CN1C(=O)N(c1ccccc1)c1ccccc1 (stereo unspecified) | 1.64 | 3.63 µM | 4.69 | 17.9 µM | 4.31 | 15.4 µM | 3.76 | 15.2 µM | 2.11 | 6.24 µM | 5.7 | 18.9 µM | 13.6 | 26.7 | 1.76 | 3.66 µM | 2.13 | 5.57 µM | 8.68 | 21.2 µM
13 | C#CCOc1ccc2ncnc(Nc3ccc(NC(=O)C=C)cc3)c2c1 | > 100 | > 100 µM | 9.76 | 39.6 µM | 71.3 | > 100 µM | > 100 | > 100 µM | 4.97 | 32.5 µM | > 100 | > 100 µM | > 100 | > 100 | 49.8 | > 100 µM | 47.3 | > 100 µM | 39.3 | > 100 µM
14 | COc1ccc(N=N/C(C(=O)C(F)(F)F)=C(\O)c2ccc(Cl)cc2)cc1 | 3.97 | 25.5 µM | 6.33 | 39.8 µM | 12 | > 100 µM | 21.2 | > 100 µM | 7.11 | 39.4 µM | 9.09 | 22.3 µM | 15.5 | 63.4 | 9.82 | > 100 µM | 3.91 | > 100 µM | 7.04 | 47.2 µM
15 | CCc1nc(N)nc(N)c1-c1ccc(N2CCNCC2)cc1 | – | > 100 µM | – | > 100 µM | – | > 100 µM | – | > 100 µM | – | > 71 µM | – | > 100 µM | – | > 100 | – | > 100 µM | – | > 100 µM | – | > 100 µM
16 | CO[C@H]1C[C@@H]2CC[C@@H](C)[C@@](O)(O2)C(=O)C(=O)N2CCCC[C@H]2C(=O)O[C@H]([C@H](C)C[C@@H]2CC[C@@H](OCCO)[C@H](OC)C2)CC(=O)[C@H](C)C=C(C)[C@@H](O)[C@@H](OC)C(=O)[C@H](C)C[C@H](C)/C=C/C=C/C=C1C | – | 21 µM | < 0.01 | 15.3 µM | 0.269 | 21.1 µM | – | 23.5 µM | 8.63 | 38.4 µM | < 0.01 | 21.5 µM | < 0.01 | 19.2 | < 0.01 | 17 µM | 0.342 | 19.9 µM | < 0.01 | –
